Laboratory results reported in US20250108036A1, “COMPOSITIONS FOR REMOVING SENESCENT CELLS AND USES THEREOF” (LIFECEUTIX CO., LTD., priority 2021, published 2025).

Experiments:
Type in all cases: cell-based, human
HMGN1 [1] = assay: HMGN1 ELISA in culture medium of A549 cancer cells (Example 12, Table 66); conditions: Homo sapiens, A549, doxorubicin-induced senescent A549 cells, ELISA, DMSO = 100, read-out: HMGN1 (amount of HMGN1 secreted in the cell culture); for activity at 30 µM: test compound 30 μM; for activity at 270 µM: test compound 270 μM
[2] = test system: foreskin cells in which senescence was induced by doxorubicin; assay: CellTiter-Glo cell viability of doxorubicin-induced senescent foreskin cells (Examples 1-2, 10, 11, 13; Tables 4, 63, 65); conditions: Homo sapiens, 72 h, doxorubicin-induced senescent foreskin cells, CellTiter-Glo, 0 μM = 100, read-out: Survival (%); for viability at 1.1 µM: 1.1 μM test compound; for viability at […]: […] test compound; for viability at 10 µM: 10 μM test compound; for viability at 30 µM: 30 μM test compound; for viability at 90 µM: 90 μM test compound
Description: After 3 days, cell viability was measured using CellTiter-Glo Luminescent Cell Viability Assay (Promega) or light microscopy.

A549 = assay: CellTiter-Glo cell viability of senescent A549 cancer cells (Example 12, Table 67); conditions: Homo sapiens, A549, doxorubicin-induced senescent A549 cancer cells, CellTiter-Glo, read-out: Survival (%); for viability at 1.1 µM: 1.1 μM test compound; for viability at 10 µM: 10 μM test compound; for viability at 30 µM: 30 μM test compound; for viability at 90 µM: 90 μM test compound; for viability at 270 µM: 270 μM test compound
HMGN1 [3] = assay: HMGN1 ELISA in culture medium of foreskin cells (Examples 10, 11; Tables 62, 63, 64); conditions: Homo sapiens, doxorubicin-treated foreskin cells, DMSO = 100; for activity at 30 µM: 30 μM test compound, read-out: HMGN1

C[C@H]1[C@H](C)CC[C@]2(C(=O)O)CC[C@]3(C)C(=CC[C@@H]4[C@@]5(C)C[C@@H](O)[C@H](O)C(C)(C)[C@@H]5CC[C@]43C)[C@H]12 [LX-2002, Corosolic acid]
activity at 30 µM (HMGN1 [1]): 314% | viability at 1.1 µM [2]: 101% | viability at […] [2]: 12.4% | viability at 1.1 µM (A549): 99.6% | viability at 10 µM (A549): 10.4% | activity at 30 µM (HMGN1 [3]): 305%

CC1(C)CC[C@]2(C(=O)O)CC[C@]3(C)C(=CC[C@@H]4[C@@]5(C)CC[C@H](O)C(C)(C)[C@@H]5CC[C@]43C)[C@@H]2C1 [LX-2003, Oleanolic acid]
activity at 90 µM (HMGN1 [1]; test compound 90 μM): 218% | viability at 1.1 µM [2]: 89.6% | viability at 10 µM [2]: 34.6% | viability at 30 µM [2]: 14% | viability at […] [2]: 65.8% | viability at 1.1 µM (A549): 97.5% | viability at 10 µM (A549): 90.6% | viability at 30 µM (A549): 52.7% | viability at 90 µM (A549): 18.3% | activity at 30 µM (HMGN1 [3]): 298%

C=C(C)[C@@H]1CC[C@]2(C(=O)O)CC[C@]3(C)[C@H](CC[C@@H]4[C@@]5(C)CC[C@H](O)C(C)(C)[C@@H]5CC[C@]43C)[C@@H]12 [LX-2005, Betulinic acid]
activity at 270 µM (HMGN1 [1]): 252% | viability at 1.1 µM [2]: 97.5% | viability at 10 µM [2]: 87.2% | viability at 30 µM [2]: 73.8% | viability at 90 µM [2]: 31.5% | viability at […] [2]: 93.3% | viability at 1.1 µM (A549): 102% | viability at 10 µM (A549): 95.7% | viability at 30 µM (A549): 82.9% | viability at 90 µM (A549): 57.2% | viability at 270 µM (A549): 5.3% | activity at 90 µM (HMGN1 [3]; 90 μM test compound): 212%

CC1(C)C=C2[C@H]3CC[C@@H]4[C@@]5(C)CCC(=O)C(C)(C)[C@@H]5CC[C@@]4(C)[C@]3(C)CC[C@@]2(C(=O)O)CC1 [LX-2007, Moronic acid]
activity at 270 µM (HMGN1 [1]): 192% | viability at 1.1 µM [2]: 105% | viability at 10 µM [2]: 91.2% | viability at 30 µM [2]: 83.9% | viability at 90 µM [2]: 47.2% | viability at 270 µM ([2]; 270 μM test compound): 1.3% | viability at […] [2]: 98.9% | viability at 1.1 µM (A549): 111% | viability at 10 µM (A549): 96.3% | viability at 30 µM (A549): 87.9% | viability at 90 µM (A549): 62.8% | viability at 270 µM (A549): 32.4% | activity at 270 µM (HMGN1 [3]; 270 μM test compound): 255%

COC(=O)[C@]12CCC(C)(C)C[C@H]1[C@H]1C(=O)C=C3[C@@]4(C)C=C(C#N)C(=O)C(C)(C)[C@@H]4CC[C@@]3(C)[C@]1(C)CC2 [LX-2102, Bardoxolone methyl, reference compound]
activity at 30 µM (HMGN1 [1]): 233% | viability at 1.1 µM [2]: 9.4% | viability at 1.1 µM (A549): 88.4% | activity at 30 µM (HMGN1 [3]): 288%

C[C@@H]1C(=O)C(C#N)=C[C@]2(C)C3=CC(=O)[C@@H]4[C@@H]5CC(C)(C)CC[C@]5(NC(=O)C(C)(F)F)CC[C@@]4(C)[C@]3(C)CC[C@@H]12 [LX-2201]
activity at 30 µM (HMGN1 [1]): 326% | viability at 1.1 µM [2]: 9.8% | viability at 1.1 µM (A549): 28.4% | activity at 30 µM (HMGN1 [3]): 318%

COC(=O)[C@]12CCC(C)(C)C[C@H]1[C@H]1C(=O)C[C@@H]3[C@@]4(C)C=C(C#N)C(=O)C(C)(C)[C@@H]4CC[C@@]3(C)[C@]1(C)CC2 [LX-2301]
activity at 30 µM (HMGN1 [1]): 274% | viability at 1.1 µM [2]: 2.6% | viability at 1.1 µM (A549): 21.5% | activity at 30 µM (HMGN1 [3]): 283%

CC1(C)CC[C@]2(C(=O)NCC(F)(F)F)CC[C@]3(C)[C@H](C(=O)C[C@@H]4[C@@]5(C)C=C(C#N)C(=O)C(C)(C)[C@@H]5CC[C@]43C)[C@@H]2C1 [LX-2302, Dihydro-CDDO-Trifluoroethyl Amide]
activity at 30 µM (HMGN1 [1]): 313% | viability at 1.1 µM [2]: 48.9% | viability at […] [2]: 6.3% | viability at 1.1 µM (A549): 95.9% | viability at 10 µM (A549): 5.4% | activity at 30 µM (HMGN1 [3]): 279%

COC(=O)N[C@]12CCC(C)(C)C[C@H]1[C@H]1C(=O)C=C3[C@@]4(C)C=C(C#N)C(=O)C(C)(C)[C@@H]4CC[C@@]3(C)[C@]1(C)CC2 [LX-2305]
activity at 30 µM (HMGN1 [1]): 269% | viability at 1.1 µM [2]: 19.6% | viability at 1.1 µM (A549): 33.6% | activity at 30 µM (HMGN1 [3]): 292%

CC1(C)CC[C@]2(NS(C)(=O)=O)CC[C@]3(C)[C@H](C(=O)C=C4[C@@]5(C)C=C(C#N)C(=O)C(C)(C)[C@@H]5CC[C@]43C)[C@@H]2C1 [LX-2306]
activity at 30 µM (HMGN1 [1]): 296% | viability at 1.1 µM [2]: 29.8% | viability at […] [2]: 7.1% | viability at 1.1 µM (A549): 102% | viability at 10 µM (A549): 11.5% | activity at 30 µM (HMGN1 [3]): 301%
